Source: patent US8846951B2 (AbbVie Inc., priority 2009, dated 2014)
Read-outs that look alike come from different tables or passages of the source.

Columns and labels:
[1] = target: T1, 5HT2C receptors (Homo sapiens, UniProt P28335); assay: Human 5-HT2C functional assay in CHO-K1 cells (96-well, calcium, FLIPR); assay type: cell-based; design: expressed in transfected cells; conditions: 5-HT2c agonist activity, CHO-K1 cells stably transfected
T1 sequence (P28335 33-458): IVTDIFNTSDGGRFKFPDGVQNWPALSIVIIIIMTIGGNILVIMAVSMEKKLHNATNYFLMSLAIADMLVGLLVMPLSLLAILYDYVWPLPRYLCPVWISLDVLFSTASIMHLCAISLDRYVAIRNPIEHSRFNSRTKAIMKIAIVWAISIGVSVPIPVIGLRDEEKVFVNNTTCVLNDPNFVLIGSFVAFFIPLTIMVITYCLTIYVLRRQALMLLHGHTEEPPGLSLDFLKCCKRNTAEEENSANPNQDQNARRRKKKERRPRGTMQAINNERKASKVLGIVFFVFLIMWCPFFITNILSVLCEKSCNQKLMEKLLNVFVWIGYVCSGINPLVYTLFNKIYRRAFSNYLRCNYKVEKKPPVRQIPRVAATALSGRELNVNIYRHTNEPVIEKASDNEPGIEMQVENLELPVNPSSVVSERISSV
Protocol: (iv) Human 5-HT2C Functional Assay in CHO-K1 Cells
Functional activity was determined by testing the effect of the compounds on intracellular calcium levels in CHO-K1 cells stably transfected with the human 5-HT2C receptor. Cells were seeded into 96-well plates at 60,000 cells/well and grown overnight in tissue culture medium (UltraCHO™ (Lonza), containing 1% dFCS, 250 μg/mL Zeocin, 400 μg/mL Geneticin) at 37° C. and 5% CO2. Growth medium was replaced by medium without dFCS for overnight incubation. Cells were loaded with a fluorescent calcium-sensitive dye in the presence of probenicid according to the manufacturer's protocol (FLIPR Ca4 Assay kit, Molecular Devices). Serial compound dilutions (final concentrations 10^−10 to 10^−5 M) were added to the cells and the maximum calcium response was determined using a FLIPR instrument (Molecular Devices). Concentration-response curves were fitted using a four-parameter logistic equation (GraphPad Prism). The concentration at which the compound exerts half its maximal effect is named the ‘effective concentration 50’ or ‘EC50’ and is listed in Table 5.

[2] = target: T2, 5HT2B receptors (Homo sapiens, UniProt P41595); assay: Human 5-HT2B functional high throughput screening assay in CHO-K1 cells (calcium flux); assay type: cell-based; conditions: for EC50: CHO-K1 cells, calcium flux
T2 construct: expressed in transfected cells; host or cells: CHO-K1 cells
T2 sequence (P41595 whole entry): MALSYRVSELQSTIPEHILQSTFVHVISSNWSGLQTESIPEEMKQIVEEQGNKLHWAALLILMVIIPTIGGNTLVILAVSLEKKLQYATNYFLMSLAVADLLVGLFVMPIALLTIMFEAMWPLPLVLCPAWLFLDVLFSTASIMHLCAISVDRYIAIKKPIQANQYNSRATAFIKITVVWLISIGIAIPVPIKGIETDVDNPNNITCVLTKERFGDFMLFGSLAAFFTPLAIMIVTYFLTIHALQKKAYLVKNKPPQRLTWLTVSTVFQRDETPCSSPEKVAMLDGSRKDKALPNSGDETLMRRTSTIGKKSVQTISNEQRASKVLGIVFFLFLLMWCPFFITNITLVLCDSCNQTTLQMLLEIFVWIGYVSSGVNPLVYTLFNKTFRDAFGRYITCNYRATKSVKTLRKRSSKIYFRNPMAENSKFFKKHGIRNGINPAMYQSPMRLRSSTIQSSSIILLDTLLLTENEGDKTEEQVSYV
Summary of the method: (§1)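 Calcium flux in CHO-K1 cells overexpressing each receptor, using Ca4 dye with probenecid and FLIPR detection. Top concentration was 10 μM, diluted 1:10 across 6 points, and efficacy was scaled to serotonin.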

[3] = target: T1, 5HT2C receptors; assay: Human 5-HT2C functional high throughput screening assay in CHO-K1 cells (calcium flux); assay type: cell-based; design: expressed in transfected cells; host or cells: CHO-K1 cells; conditions: for Emax: CHO-K1, 5-HT2C, maximum functional response as percentage relative to the effect of serotonin; for EC50: CHO-K1 cells, calcium flux
Summary of the method: as §1

[4] = target: T3, human serotonin 5-HT2c receptor (Homo sapiens, UniProt P28335); assay: Human 5-HT2C receptor radioligand binding assay (agonist site, [125I]DOI); conditions: 5-HT2c agonist site; transfected CHO cell membranes; 0.2 nM [125I](±)DOI
T3 construct: expressed in transfected cells; host or cells: CHO cells (membrane homogenates)
T3 sequence (P28335 33-458): T1 sequence (P28335 33-458)
Protocol: (i) Human 5-HT2C Receptor Radioligand Binding Assay
Affinity of compounds for the agonist site of the […], receptor in transfected CHO cells was determined in a radioligand binding assay essentially as described by Bryant, H. U., et al., Life Sciences (1996) 59(15), 1259-1268.

[5] = target: T1, 5HT2C receptors; assay: Human 5-HT2C functional assay in 1321N1 cells (intracellular calcium, FLIPR); assay type: cell-based; design: expressed in transfected cells; host or cells: 1321N1 cells; conditions: 5-HT2c agonist activity, maximum calcium response
Summary of the method: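 1321N1 cells stably expressing human 5-HT2C were serum-starved overnight and loaded with Fluo-4 AM and 1% probenecid. Compounds (10^−10 to 10^−5 M) were tested alone or with 10^−9 M serotonin, and peak calcium was read by FLIPR. EC50 from four-parameter logistic fit.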

[6] = target: T4, h-5-HT6 receptor (Homo sapiens, UniProt P50406); assay: Human 5-HT6 receptor radioligand binding assay (HEK293 membranes, [3H]-LSD)
T4 construct: expressed in transfected cells; host or cells: HEK293 cells (membranes)
T4 sequence (P50406 whole entry): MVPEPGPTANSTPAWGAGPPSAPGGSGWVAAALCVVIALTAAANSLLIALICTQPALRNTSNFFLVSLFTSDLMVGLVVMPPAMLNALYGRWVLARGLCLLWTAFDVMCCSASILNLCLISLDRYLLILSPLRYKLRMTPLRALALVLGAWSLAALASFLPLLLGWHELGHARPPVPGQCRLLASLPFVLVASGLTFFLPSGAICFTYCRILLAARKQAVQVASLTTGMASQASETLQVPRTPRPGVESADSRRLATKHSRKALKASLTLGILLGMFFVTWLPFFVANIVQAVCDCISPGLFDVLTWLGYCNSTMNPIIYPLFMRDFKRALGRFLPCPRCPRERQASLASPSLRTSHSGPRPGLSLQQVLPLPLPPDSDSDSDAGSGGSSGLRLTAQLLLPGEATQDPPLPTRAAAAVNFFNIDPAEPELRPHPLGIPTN
Protocol: (v) Human 5-HT6 Receptor Radioligand Binding Assay
Preparation of Membranes by Ultrasonic Treatment and Differential Centrifugation
Cells from stable clonal cell lines expressing the corresponding receptor (5-HT6) were washed with PBS (without Ca^++, Mg^++) and harvested in PBS with 0.02% EDTA. The cells were collected by centrifugation at 500 g for 10 minutes at 4° C., washed with PBS and centrifuged (500 g, 10 minutes at 4° C.). The pellets were stored at −80° C. until use. For membrane preparation, the thawed cell pellet was resuspended in ice-cold sucrose buffer (0.25 M sucrose, 10 mM HEPES (pH 7.4), 1 mM phenylmethylsulfonyl fluoride (PMSF) in DMSO, 5 μg/ml Pepstatin-A, 3 mM EDTA, 0.025% Bacitracin) and homogenized with a Branson Sonifier W-250 (Settings: Timer 4; Output Control 3; Duty Cycle constant; 2 to 3 cycles). Cell disruption was checked with the aid of a microscope. Remaining unbroken cells were pelleted at 1,000 g for 10 minutes at 4° C. The sucrose buffer supernatant was then centrifuged at 60,000 g for 1 hour at 4° C. (Beckman Ultracentrifuge XL 80). The pellet was resuspended in 30 mL of ice-cold Tris buffer (20 mM TRIS (pH 7.4), 5 μg/mL Pepstatin A, 0.1 mM PMSF, 3 mM EDTA) by pipetting through a 10 mL serological pipette and centrifuged for 1 hour at 4° C. at 60,000 g. A final resuspension was performed in a small volume of ice-cold Tris buffer (see above) by pressing through a serological pipette followed by ultrasonic treatment with a Branson Sonifier W-250 (Settings: Timer 1; Output Control 3; Duty Cycle constant; 1 cycle). Protein concentration was determined (BCA-Kit; Pierce) and aliquots stored at −80° C. or in liquid nitrogen for long-term storage.
Receptor Binding Experiments
All receptor binding experiments were carried out in the corresponding assay buffer in a total volume of 200 μL in the presence of various concentrations of test compound (10^−5 M to 10^−9 M, tenfold serial dilution, duplicate determinations). The assays were terminated by filtration on polyethylenimine (PEI 0.1% or 0.3%) presoaked Packard Unifilter Plates (GF/C or GF/B) with a Tomtec MachIII U 96 well-plate harvester. After the plates had been dried for 2 hours at 55° C. in a drying chamber scintillation cocktail (BetaPlate Scint; PerkinElmer) was added. Radioactivity was measured in a Microbeta Trilux two hours after the addition of the scintillation mixture.
5-HT6 Receptor Binding Assay
HEK293 cells stably expressing the h-5-HT6 receptor (NCBI Reference Sequence XM 001435) were cultured in RPMI1640 medium supplemented with 25 mM HEPES, 10% fetal calf serum and 1-2 mM glutamine. The membrane preparation was performed as described above. […] On the day of the assay, the membranes were thawed, diluted in assay buffer (50 mM Tris-HCl, 5 mM CaCl2, 0.1% ascorbic acid, 10 μM pargyline, pH 7.4) to a concentration of 8 μg protein/assay and homogenized by gentle vortexing. […] Non-specific binding was defined with 1 μM methiothepin. The binding reaction was carried out for 3.5 hours at room temperature. During the incubation, the plates were shaken on a plate shaker at 100 rpm and terminated by filtration on Packard Unifilter GF/C (0.1% PEI) plates, followed by 2 wash cycles with ice-cold 50 mM Tris-HCl, 5 mM CaCl2.
Data derived from liquid scintillation counting were analyzed by iterative non-linear regression analysis with the use of the Statistical Analysis System (SAS): a program similar to “LIGAND” as described by Munson and Rodbard (Anal. Biochem. 1980, 107, 220-239). Fitting was performed according to formulae described by Feldman (Anal. Biochem. 1972, 48, 317-338). IC50 and Ki values were expressed as geometrical mean.

[7] = 5-HT2B agonist activity, read-out: EC50
[8] = 5-HT2B, maximum functional response as percentage relative to the effect of serotonin
[9] = 5-HT2C agonist activity, read-out: EC50

SMILES | EC50 [1] [nM] | Emax ([2]; CHO-K1) [%] | Emax [3] [%] | Ki [4] [nM] | EC50 ([2]; EC50, 5-HT2B agonist activity) [nM] | EC50 ([3]; EC50, 5-HT2C agonist activity) [nM] | EC50 [2, 7] [nM] | Emax [2, 8] | EC50 [3, 9] [nM] | Emax ([3]; read-out: Emax) [%] | EC50 [5] [nM] | Ki [6] [nM]
Clc1ccc2c(c1)[C@H]1CNC[C@@H]1CCO2 (relative stereo) [Example 95, Trans-9-chloro-2,3,3a,4,5,10b-hexahydro-1H-[1]benzoxepino[4,5-c]pyrrole] | 1.7 | 35 | > 120 | – | – | – | – | – | – | – | – | –
c1ccc2c(c1)OCC[C@H]1CNC[C@@H]21 (relative stereo) [Example 96, Cis-2,3,3a,4,5,10b-hexahydro-1H-[1]benzoxepino[4,5-c]pyrrole] | 36.9 | 50 | 120 | 380 | 1000 | 200 | – | – | – | – | – | –
O=C1NC[C@@H]2CN(Cc3ccccc3)C[C@H]2c2cc(F)ccc21 (relative stereo) [Example 63, Trans-2-benzyl-9-fluoro-1,2,3,3a,4,5-hexahydrobenzo[c]pyrrolo[3,4-e]azepin-6(10bH)-one] | 145 | – | – | 140 | – | – | > 10000 | inactive | 200 | 120 | – | –
c1ccc(CN2C[C@@H]3CCOc4ccccc4[C@H]3C2)cc1 (relative stereo) [Example 93, Trans-2-benzyl-2,3,3a,4,5,10b-hexahydro-1H-[1]benzoxepino[4,5-c]pyrrole] | 4.4 | – | – | – | – | – | > 10000 | inactive | 100 | > 120 | – | –
CN1C[C@H]2CNC(=O)c3ccc(F)cc3[C@@H]2C1 (relative stereo) [Example 90, Trans-9-fluoro-2-methyl-1,2,3,3a,4,5-hexahydrobenzo[e]pyrrolo[3,4-c]azepin-6(10bH)-one] | 14.5 | – | 85 | – | > 10000 | 300 | – | inactive | – | – | – | –
O=C1NC[C@@H]2CNC[C@H]2c2cc(F)ccc21 (relative stereo) [Example 64, Trans-9-fluoro-1,2,3,3a,4,5-hexahydrobenzo[c]pyrrolo[3,4-e]azepin-6(10bH)-one] | 17 | – | – | 1000 | – | – | – | – | – | – | – | –
CN1C[C@H]2CN(S(=O)(=O)c3ccccc3)Cc3ccccc3[C@@H]2C1 (relative stereo) [Example 71, Trans-2-methyl-5-(phenylsulfonyl)-1,2,3,3a,4,5,6,10b-octahydrobenzo[e]pyrrolo[3,4-e]azepine] | – | – | – | 15 | – | – | – | – | – | – | 14.2 | 4.42
O=S(=O)(c1cccc(F)c1)N1Cc2ccccc2[C@@H]2CNC[C@H]2C1 (relative stereo) [Example 54, Trans-5-(3-fluorophenylsulfonyl)-1,2,3,3a,4,5,6,10b-octahyrobenzo[c]pyrrolo[3,4-e]azepine] | – | – | – | 9.1 | – | – | – | – | – | – | 13.2 | 121
CN1C[C@H]2CNC(=O)c3cc(Cl)ccc3[C@@H]2C1 (relative stereo) [Example 53, Trans-8-chloro-2-methyl-1,2,3,3a,4,5-hexahydrobenzo[e]pyrrolo[3,4-c]azepin-6(10bH)-one] | 2.93 | – | 100 | 8.1 | > 10000 | 20 | – | inactive | – | – | – | –
CN1C[C@H]2CNC(=O)c3cc(-c4ccccc4)ccc3[C@@H]2C1 (relative stereo) [Example 86, Trans-2-methyl-8-phenyl-1,2,3,3a,4,5-hexahydrobenzo[e]pyrrolo[3,4-c]azepin-6(10bH)-one] | 3.7 | – | – | – | – | – | > 10000 | inactive | 7 | 110 | – | –
c1ccc2c(c1)OCC[C@H]1CNC[C@H]21 (relative stereo) [Example 94, Trans-2,3,3a,4,5,10b-hexahydro-1H-[1]benzoxepino[4,5-c]pyrrole] | 124 | 45 | > 120 | – | 500 | 30 | – | – | – | – | – | –
CN1C[C@H]2CNC(=O)c3cc(F)ccc3[C@@H]2C1 (relative stereo) [Example 91, Trans-8-fluoro-2-methyl-1,2,3,3a,4,5-hexahydrobenzo[e]pyrrolo[3,4-c]azepin-6(10bH)-one] | 1.5 | 25 | > 120 | – | 3000 | 20 | – | – | – | – | – | –
